Laboratory results: US6525059B1, “Substituted pyrazoles as p38 kinase inhibitors” (G. D. Searle & Company, priority 1998, dated 2003)
Read-outs that look alike come from different tables or passages of the source.

Columns and labels:
TNF-α [1] = assay: LPS stimulation of TNF production by U937 cells; type: cell-based, human; conditions: Homo sapiens, U-937, LPS-stimulated U937 cells; read-out: U937 IC50
Summary of the method: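 PMA-differentiated human U937 cells (20 ng/ml PMA, 24 h, then 24-48 h rest) at 2 million cells/ml, 0.1% DMSO final, stimulated with E. coli LPS (100 ng/ml final) for 4 h at 37° C. TNF-α in medium measured by ELISA; IC50 in μM.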

TNF alpha = assay: Mouse model of LPS-induced TNF alpha production; type: in vivo
Description: TNF alpha was induced in 10-12 week old BALB/c female mice by tail vein injection with 100 ng lipopolysaccharide (from S. Typhosa) in 0.2 ml saline. One hour later mice were bled from the retroorbital sinus and TNF concentrations in serum from clotted blood were quantified by ELISA.
Efficacy was determined at each time point as percent inhibition of serum TNF levels relative to LPS injected mice that received vehicle only
wherein in the dose is milligram per kilogram (mpk) administered by oral gavage and the predose time indicates the number of hours before LPS challenge when the compound is administered.

human p38 kinase alpha = molecular target: T1, human p38 kinase alpha (Homo sapiens, UniProt Q16539); assay: p38 kinase in vitro assay, phosphorylation of biotinylated PHAS-I with gamma 32P-ATP; type: biochemical
T1 construct: The coding region of the human p38a cDNA was obtained by PCR-amplification from RNA isolated from the human monocyte cell line THP.1; GST (N); made in house; host or cells: E. coli DH10B
Summary of the method: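 Radiometric filter-capture read-out: streptavidin plates trap biotin-PHAS-I labelled by activated (MKK6) human p38α from γ-32P-ATP. Buffer 25 mM HEPES pH 7.5, 10 mM magnesium acetate, 50 μM cold ATP; reactions 1 h or overnight at 30 °C; inhibitors 10-fold dilutions 100 to 0.001 μM, triplicates, 1% DMSO.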

TNF-α [2] = assay: Rat assay: LPS-challenged rats, serum TNF-α by ELISA; type: in vivo; conditions: Rattus norvegicus, po; for inhibition in vivo at 20 mg/kg: Table 10, dose 20.0 mg/kg; for inhibition in vivo at 5 mg/kg: Table 10, dose 5.0 mg/kg; for inhibition in vivo at 5 mg/kg / inhibition in vivo at 1 mg/kg: read-out: Rat LPS Assay % Inhibition; for inhibition in vivo at 1 mg/kg: Table 10, dose 1.0 mg/kg
[3] = molecular target: T2, human GST-p38 kinase alpha (Homo sapiens, UniProt Q16539); assay: p38 kinase in vitro assay, second format, phosphorylation of EGFRP with 33P-ATP; type: biochemical; conditions: Table 10, 10% DMSO; @ 1.0 hour; read-out: p38α Kinase Assay IC50
T2 construct: The coding region of the human p38a cDNA was obtained by PCR-amplification from RNA isolated from the human monocyte cell line THP.1; made in house; host or cells: E. coli DH10B
Summary of the method: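 Activated human GST-p38α (pre-activated with GST-MKK6, 1 h, 30 °C) phosphorylates EGFR 21-mer peptide (200 μM) with 50 μM ATP plus γ-33P-ATP, pH 7.5, 60 min at room temperature. Unreacted ATP removed by AG 1×8 resin; supernatant scintillation-counted.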

human TNF = assay: TNF inhibition: human whole blood assay; type: cell-based; conditions: Homo sapiens, Table 10, human whole blood, LPS; read-out: TNF Inhibition-Human Whole Blood Assay
[4] = mouse, oral, 1h before LPS, 30 mpk, read-out: mLPS 1h, 30 mpk percent inhibition
[5] = p38α in vitro, PHAS-I assay procedure, read-out: p38^1 IC50

T1 sequence (Q16539 whole entry): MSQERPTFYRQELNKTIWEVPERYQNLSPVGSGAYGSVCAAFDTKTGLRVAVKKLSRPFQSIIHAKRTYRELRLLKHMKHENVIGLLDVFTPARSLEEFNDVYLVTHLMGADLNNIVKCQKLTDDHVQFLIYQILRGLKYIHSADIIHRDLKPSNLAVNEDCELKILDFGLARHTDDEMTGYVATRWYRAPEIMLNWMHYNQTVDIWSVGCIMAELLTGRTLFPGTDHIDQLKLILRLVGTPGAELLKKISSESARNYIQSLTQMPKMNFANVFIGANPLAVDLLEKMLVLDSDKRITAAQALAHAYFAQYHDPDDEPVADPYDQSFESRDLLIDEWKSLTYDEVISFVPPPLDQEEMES
T2 sequence (Q16539 whole entry): as above

SMILES | inhibition in vivo at 20 mg/kg (TNF-α [2]) [%] | IC50 [3] [nM] | IC50 (human TNF) [µM] | melting point [°C] | inhibition in vivo at 5 mg/kg (TNF-α [2]) [%] | also measured
OCCn1cc(-c2ccncc2)c(-c2ccc(F)cc2)n1 [Example A-210, 3-(4-fluorophenyl)-4-(4-pyridinyl)-1H-pyrazole-1-ethanol] | – | – | – | – | – | IC50 (TNF-α [1]): 198 nM; inhibition in vivo at 30 mg/kg (TNF alpha; [4]): 93%; IC50 (human p38 kinase alpha; [5]): 160 nM
Cn1nc(-c2ccc(F)cc2)c(-c2ccncc2)c1C(O)c1ccccc1 (stereo not drawn) [Example A-217, 3-(4-fluorophenyl)-1-methyl -α-phenyl-4-(4-pyridinyl)-1H-pyrazole-5-methanol] | – | – | – | – | – | IC50 (TNF-α [1]): 349 nM; inhibition in vivo at 30 mg/kg (TNF alpha; [4]): 9%; IC50 (human p38 kinase alpha; [5]): 697 nM
Cn1cc(-c2ccncc2)c(-c2cccc(F)c2)n1 [Example A-229, 4-[3-(3-fluorophenyl)-1-methyl-1H-pyrazol-4-yl]pyridine] | – | – | – | – | – | IC50 (TNF-α [1]): 462 nM; inhibition in vivo at 30 mg/kg (TNF alpha; [4]): 91%
CN(C)CCNc1cc(-c2c[nH]nc2-c2ccc(F)cc2)ccn1 [Example A-264, N′-[4-[3-(4-fluorophenyl)-1H-pyrazol-4-yl]-2-pyridinyl]-N,N-dimethyl-1,2-ethanediamine] | – | – | – | – | – | IC50 (TNF-α [1]): 259 nM; inhibition in vivo at 30 mg/kg (TNF alpha; [4]): 61%
Fc1ccc(-c2n[nH]cc2-c2ccnc(NCCN3CCOCC3)c2)cc1 [Example A-266, N-[4-[3-(4-fluorophenyl)-1H-pyrazol-4-yl)-2-pyridinyl]-4-morpholineethanamine] | – | – | – | – | – | IC50 (TNF-α [1]): 539 nM; inhibition in vivo at 30 mg/kg (TNF alpha; [4]): 0%
Fc1ccc(-c2nn(CCN3CCOCC3)cc2-c2ccnc(F)c2)cc1 [Example A-269, 4-[2-[3-(4-fluorophenyl)-4-(2-fluoro-4-pyridinyl)-1H-pyrazol-1-yl]ethyl]morpholine] | – | – | – | – | – | IC50 (TNF-α [1]): > 10000 nM; inhibition in vivo at 30 mg/kg (TNF alpha; [4]): 51%
Cc1cc(C(=O)C(=C2SCS2)c2ccncc2)ccc1Cl [Example A-391, 1-(4-chloro-3-methylphenyl)-2-1,3-dithietan-2-ylidene-2-pyridin-4-yl-ethanone] | 53 | 4830 | > 25 | 164 to 165 | – | –
Cc1cc(-c2n[nH]c(N3CCN(C)CC3)c2-c2ccncc2)ccc1Cl [Example A-407, 1-[5-(3-methyl-4-chlorophenyl)-4-(4-pyridinyl)-1H-pyrazol-3-yl]-4-methylpiperazine] | 82 | 180 | 3.86 | 236.7 to 239.3 | 21 | –
Cc1ccccc1-c1n[nH]c(N2CCN(C)CC2)c1-c1ccncc1 [Example A-408, 1-[5-(2-tolyl)-4-(4-pyridinyl)-1H-pyrazol-3-yl]-4-methylpiperazine] | 49 | 5590 | 11.7 | 244 to 244.2 | 20 | –
CN1CCN(c2[nH]nc(-c3cccc(Br)c3)c2-c2ccncc2)CC1 [Example A-409, 1-[5-(3-bromophenyl)-4-(4-pyridinyl)-1H-pyrazol-3-yl]-4-methylpiperazine] | 89 | 210 | 5.27 | 222.5 to 223.4 | 41 | –
COc1ccc(-c2[nH]nc(N3CCN(C)CC3)c2-c2ccncc2)cc1Cl [Example A-413] | 85 | 910 | 6.51 | 272.7 to 276.4 | 45 | –
CN1CCN(c2[nH]nc(-c3ccc(C(C)(C)C)cc3)c2-c2ccncc2)CC1 [Example A-414, 1-[5-(4-tert-butylphenyl)-4-(4-pyridinyl)-1H-pyrazol-3-yl]-4-methylpiperazine] | 14 | 9510 | 11.2 | 243.6 to 244.3 | 3 | –
CN1CCN(c2n[nH]c(-c3ccc(I)cc3)c2-c2ccncc2)CC1 [Example A-417, 1-[5-(4-iodophenyl)-4-(4-pyridinyl)-1H-pyrazol-3-yl]-4-methylpiperazine] | 70 | 190 | 12 | 265.2 to 265.8 | 40 | –
Nc1[nH]nc(-c2ccc(Cl)cc2)c1-c1ccncc1 [Example A-427, 5-amino-3-(4-chlorophenyl)-4-(pyridin-4-yl)pyrazole] | 77 | 190 | 24.1 | > 300 | 56 | –
CSc1[nH]nc(-c2ccc(Cl)cc2)c1-c1ccncc1 [Example A-435] | 14 | 350 | > 25 | 250.2 | 0 | inhibition in vivo at 1 mg/kg (TNF-α [2]): 10%
CN1CCN(c2[nH]nc(-c3ccc(Br)cc3)c2-c2ccncc2)CC1 [Example A-439] | 93 | 150 | 5.63 | 270.2 to 270.7 | 58 | –
CC(C)(C)OC(=O)N1CCC(Oc2[nH]nc(-c3ccc(Cl)cc3)c2-c2ccncc2)CC1 [Example A-441] | 62 | 1210 | > 25 | 230.1 to 231.8 | 14 | –
CN1CCC(Oc2[nH]nc(-c3ccc(Cl)cc3)c2-c2ccncc2)CC1 [Example A-448, 3-(4-chlorophenyl)-5-[(1-methylpiperidin-4-yl)-oxy]-4-pyridin-4-yl-1H-pyrazole] | 97 | 84 | 0.12 | 255.9 to 256.8 | 73 | –
N#CCSc1[nH]nc(-c2ccc(Cl)cc2)c1-c1ccncc1 [Example A-456] | 53 | 120 | 0.98 | 230 to 230.5 | 48 | inhibition in vivo at 1 mg/kg (TNF-α [2]): 36%
Clc1ccc(-c2n[nH]c(SC3CCNCC3)c2-c2ccncc2)cc1 [Example A-459] | 80 | 27 | 0.26 | 211.1 to 211.2 | 54 | inhibition in vivo at 1 mg/kg (TNF-α [2]): 0%
COCCSc1[nH]nc(-c2ccc(Cl)cc2)c1-c1ccncc1 [Example A-469, 3-(4-chlorophenyl)-5-[(2-methoxyethyl)-thio]-4pyridin-4-yl-pyrazole] | 68 | 95 | 7.17 | 189.2 to 190.2 | 51 | –
Clc1ccc(-c2n[nH]c(SCC3OCCO3)c2-c2ccncc2)cc1 [Example A-473] | 58 | 170 | 0.56 | 197 to 198.2 | – | –
O=C(CSc1[nH]nc(-c2ccc(Cl)cc2)c1-c1ccncc1)N1CCOCC1 [Example A-476] | 35 | 1010 | 0.97 | 215.4 to 215.5 | – | –
[O-][S+](c1[nH]nc(-c2ccc(Cl)cc2)c1-c1ccncc1)C1CCNCC1 (stereo not shown) [Example A-482] | 15 | 1620 | 0.69 | 189.1 to 190.8 | – | –
CC(Oc1ccccc1)C(=O)NCc1[nH]nc(-c2ccc(F)cc2)c1-c1ccncc1 (stereo not shown) [Example B-0087] | – | – | – | – | – | inhibition in vivo at 30 mg/kg (TNF alpha; Mus musculus, 30 mpk oral gavage, -6h before LPS, read-out: Mouse LPS Model % TNF inhib @ dose @ predose time): 38%; IC50 (human p38 kinase alpha; read-out: P38 alpha kinase IC50): 550 nM
C#CCNC(=O)Cn1nc(-c2ccc(F)cc2)c(-c2ccncc2)c1C [Example B-2310] | – | – | – | – | – | Mouse LPS Model % TNF inhib @ dose @ predose time (TNF alpha; 30 mpk oral gavage): 50% @ 30 mpk @ -6h
